Data as given in patent publication US20250099545A1, “COMPOSITIONS, SYSTEMS, AND METHODS FOR TREATING CANCER USING TUMOR TREATING FIELDS WITH IMMUNE CHECKPOINT INHIBITORS AND MHC CLASS I ACTIVATORS” (Novocure GmbH, priority 2023, published 2025).
Like-named read-outs stand apart in the source and are kept apart here.

Experiments:
[1] = test system: MHC Class I expression in A2780 human ovarian cancer cells; test: MHC Class I expression in A2780 cells after alpelisib, TTFields or both; format: cell-based; conditions: TTFields (1.75V/cm and 200 kHz) plus 250 nM alpelisib for 72 h, then 72 h without drug under TTFields, vs untreated control and single treatments
Experimental: A2780 human ovarian cancer cells (20,000 cells/well) were incubated for 144 h with the following conditions: Control untreated; 250 nM alpelisib (PI3K inhibitor) for 72 h—media containing the drug was removed, and fresh media without alpelisib was added for an additional 72 h incubation; TTFields (1.75V/cm and 200 kHz); TTFields plus 250 nM alpelisib for 72 h—media containing the drug was removed, and fresh media without alpelisib was added for an additional 72 h incubation under TTFields condition.

[2] = test system: MHC Class I expression in Panc02-luc mouse pancreatic cells; conditions: TTFields (1.75V/cm and 150 kHz) plus 10 μM chloroquine, 72 h, vs untreated control
Experimental: Panc02-luc mouse pancreatic cells (10,000 cells/well) were incubated for 72 h with the following conditions: Control untreated, 10 μM chloroquine (autophagy inhibitor), TTFields (1.75V/cm and 150 kHz), and TTFields plus 10 μM chloroquine.
In FIG. 3, MHC Class I expression was evaluated in Panc02-luc mouse pancreatic cells (an orthotopic model of pancreatic cancer) following chloroquine (an autophagy inhibitor) treatment alone, TTFields application alone, and the combination of TTFields application with concomitant chloroquine treatment.

Cc1nc(NC(=O)N2CCC[C@H]2C(N)=O)sc1-c1ccnc(C(C)(C)C(F)(F)F)c1 [alpelisib]
MHC Class I expression [1]: greater than in the untreated control group as well as in the single treatment groups | MHC Class I expression ([1]; listed as Alpelisib): increased with concomitant Alpelisib treatment

CCN(CC)CCCC(C)Nc1ccnc2cc(Cl)ccc12 (stereo not shown) [chloroquine]
MHC Class I expression [2]: increased significantly above the untreated cells | MHC Class I expression ([2]; listed as Chloroquine): increased with concomitant Chloroquine treatment
